# Measurements published in patent US20170143647A1, “INTESTINAL FLORA IMPROVING COMPOSITION CONTAINING ASTAXANTHIN AND ITS USE” (THE DOSHISHA, priority 2013, published 2017).
# Entries after “also recorded” stand apart in the source; their conditions may differ.
# What was measured:
# [1] = tested on: Streptococcus group (lactic acid bacteria); assay: Real-time PCR of fecal DNA, Streptococcus group; type: in vivo, ICR mice
# Experimental: (§1) A change in intestinal flora when a high-fat diet was fed to mice, and the effect of astaxanthin on intestinal flora were determined using a real-time PCR method.
# (§2) The test substance (astaxanthin) was added to an ordinary diet (“Labo MR Stock” manufactured by Nosan Corporation (Nishi-ku, Yokohama)) and a high-fat diet (“HFD-60” Oriental Yeast Co., Ltd. (Itabashi-ku, Tokyo)) so that the content thereof was 0.02%.
# (§3) A commercially-available product “AstaReal Oil 50F” (manufactured by Fuji Chemical Industries Co., Ltd.) was used as astaxanthin.
# (§4) Twenty 4-week-old ICR mice were respectively kept in different cages, and habituated for 1 week.
# (§5) After completion of habituation, the weight of each mouse was measured, and the mice were divided into an ordinary diet group (group C), an ordinary diet+astaxanthin group (group CA), a high-fat diet group (group H), and a high-fat diet+astaxanthin group (group HA) (five mice per group). […]
# (§6) The DNA solution was 100-fold diluted (Lactobacillus, Streptococcus, Clostridium coccoides, and Clostridium leptum), and the final concentration was adjusted to […] (other targets). […] The primer sequence was analyzed using the method of Matsuki et al. or Endo et al. […]
# (§7) Regarding a comparison as to the presence or absence of astaxanthin, the bacterial count change ratio was analyzed by Mann-Whitney's U test (one-sided test).
# [2] = tested on: Lactobacillus group (lactic acid bacteria); assay: Real-time PCR of fecal DNA, Lactobacillus group; type: in vivo, ICR mice
# Experimental: as §1, §2, §3, §4, §5, §6, §7
# [3] = taken orally; cited from earlier work
# [4] = eight-week treatment; cited from earlier work
# [5] = tested on: Clostridium coccoides group; assay: Real-time PCR of fecal DNA, Clostridium coccoides group; type: in vivo, ICR mice
# Experimental: as §1, §2, §3, §4, §5, §6, §7
# intestinal flora = assay: Effect of astaxanthin on intestinal flora of mice fed a high-fat diet (overall); type: in vivo; settings: intake of astaxanthin, high-fat diet fed to a mouse
# Experimental: A change in intestinal flora when a high-fat diet was fed to mice, and the effect of astaxanthin on intestinal flora were determined using a real-time PCR method. The test substance (astaxanthin) was added to an ordinary diet (“Labo MR Stock” manufactured by Nosan Corporation (Nishi-ku, Yokohama)) and a high-fat diet (“HFD-60” Oriental Yeast Co., Ltd. (Itabashi-ku, Tokyo)) so that the content thereof was 0.02%. A commercially-available product “[…] Oil […]” (manufactured by Fuji Chemical Industries Co., Ltd.) was used as astaxanthin. Twenty 4-week-old ICR mice were respectively kept in different cages, and habituated for 1 week. After completion of habituation, the weight of each mouse was measured, and the mice were divided into an ordinary diet group (group C), an ordinary diet+astaxanthin group (group CA), a high-fat diet group (group H), and a high-fat diet+astaxanthin group (group HA) (five mice per group). The DNA solution was 100-fold diluted (Lactobacillus, Streptococcus, Clostridium coccoides, and Clostridium leptum), and the final concentration was adjusted to […] (other targets). […] The primer sequence was analyzed using the method of Matsuki et al. or Endo et al. The real-time PCR assay was performed on Bacteroides, Bifidobacterium (bifidobacteria), Prevotella, Lactobacillus, Streptococcus, Clostridium coccoides, and Clostridium leptum.
# [6] = Change in body weight of mice fed ordinary or high-fat diet with or without astaxanthin; type: in vivo, ICR mice; settings: 0.02% astaxanthin in ordinary or high-fat diet, weight measured once a week
# Experimental: as §2, §3, §4
# (§8) After completion of habituation, the weight of each mouse was measured, and the mice were divided into an ordinary diet group (group C), an ordinary diet+astaxanthin group (group CA), a high-fat diet group (group H), and a high-fat diet+astaxanthin group (group HA) (five mice per group).
# The diet was fed to each group from Day 1, and the weight of each mouse was measured once a week.
# The ordinary diet was fed once a week, and the high-fat diet was fed every other day (the high-fat diet was returned to room temperature on the day before the feeding).
# The mean value of each group was analyzed by Tukey's multiple comparison test.
# Clostridium leptum group = assay: Real-time PCR of fecal DNA, Clostridium leptum group; type: in vivo, ICR mice; settings: group HA vs group H
# Experimental: as §1, §2, §3, §4, §8
# (§9) The feces of the mice were collected over 24 hours on the final day of habituation (Day 0). […]
# as §6
# (§10) The mean value of each group was analyzed by Tukey's multiple comparison test. […]
# [7] = tested on: bacteria that belong to the genus Bacteroides; assay: Real-time PCR of fecal DNA, genus Bacteroides; type: in vivo, ICR mice; settings: group HA (high-fat diet + astaxanthin), Day 14, FIG. 9
# Experimental: as §1, §2, §3, §4, §8, §9, §6, §10
structure (smiles),measurement,setting,value
"CC1=C(/C=C/C(C)=C/C=C/C(C)=C/C=C/C=C(C)/C=C/C=C(C)/C=C/C2=C(C)C(=O)C(O)CC2(C)C)C(C)(C)CC(O)C1=O (stereo not drawn) [astaxanthin, 3,3′-dihydroxy-β,β-carotene-4,4′-dione]","rate of increase in bacterial count of the Streptococcus group, between the high-fat diet groups","[1]; group H vs HA, p=0.044",significant difference
same,bacterial count of the Streptococcus group,"[1]; group HA (high-fat diet + astaxanthin), Day 28",comparable to those of the ordinary diet group; also recorded: increased
same,rate of increase in the bacterial count of the Lactobacillus group,"[2]; addition of 0.02% astaxanthin to diet, p=0.031",increased
same,bacterial count of the Lactobacillus group,"[2]; group C vs CA and group H vs HA, FIG. 4",increased
same,astaxanthin absorbed in the small intestine,[3],about 5%
same,efficacy reported in Non-Patent Literature 1,[4],"enhances the antioxidant potential, decreases blood pressure, and improves constipation and a climacteric complaint"
same,growth of the Clostridium coccoides group,"[5]; group H vs HA, Day 14 and Day 28, FIG. 7",suppressed the growth
same,rate of increase in the bacterial count of the Clostridium coccoides group,"[5]; high-fat diet, addition of astaxanthin, p=0.029",decreased
same,effect on intestinal flora,intestinal flora,improves intestinal flora; also recorded: controls the disorder of intestinal flora
same,"change in body weight, groups fed astaxanthin (CA, HA) vs groups not fed astaxanthin (C, H)",[6],No significant difference
same,bacterial count of the Clostridium leptum group,"Clostridium leptum group; Day 14, p<0.001",temporary increase
same,bacterial count of the Clostridium leptum group,Clostridium leptum group; Day 28,no significant difference
same,bacterial count of bacteria that belong to the genus Bacteroides,[7],did not show such a temporary increase; also recorded: suppressed a temporary increase; also recorded: did not show a significant increase
